Measurements as given in article PMC10046037, “GABRG2 Variants Associated with Febrile Seizures” (Biomolecules, 2023).

Target: T1, α1β3γ2 GABAA receptor, γ2Y468C variant (Homo sapiens, UniProt P14867+P18507+P28472, Y468C)
T1 construct: expressed in transfected cells; host or cells: HEK293T
T1 sequence (P14867 28-456): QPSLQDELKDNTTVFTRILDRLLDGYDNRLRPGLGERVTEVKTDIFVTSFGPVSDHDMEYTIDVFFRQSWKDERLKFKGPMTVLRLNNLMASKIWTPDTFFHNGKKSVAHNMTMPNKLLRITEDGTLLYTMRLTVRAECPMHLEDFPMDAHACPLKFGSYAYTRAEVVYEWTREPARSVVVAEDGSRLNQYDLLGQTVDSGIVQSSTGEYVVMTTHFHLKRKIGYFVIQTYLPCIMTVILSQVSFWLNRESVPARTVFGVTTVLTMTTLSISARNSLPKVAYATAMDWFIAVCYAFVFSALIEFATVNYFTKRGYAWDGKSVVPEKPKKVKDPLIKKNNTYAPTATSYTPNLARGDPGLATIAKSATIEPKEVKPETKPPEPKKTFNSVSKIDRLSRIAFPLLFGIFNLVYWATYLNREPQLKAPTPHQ
T1 sequence (P28472 26-473 isoform P28472-2): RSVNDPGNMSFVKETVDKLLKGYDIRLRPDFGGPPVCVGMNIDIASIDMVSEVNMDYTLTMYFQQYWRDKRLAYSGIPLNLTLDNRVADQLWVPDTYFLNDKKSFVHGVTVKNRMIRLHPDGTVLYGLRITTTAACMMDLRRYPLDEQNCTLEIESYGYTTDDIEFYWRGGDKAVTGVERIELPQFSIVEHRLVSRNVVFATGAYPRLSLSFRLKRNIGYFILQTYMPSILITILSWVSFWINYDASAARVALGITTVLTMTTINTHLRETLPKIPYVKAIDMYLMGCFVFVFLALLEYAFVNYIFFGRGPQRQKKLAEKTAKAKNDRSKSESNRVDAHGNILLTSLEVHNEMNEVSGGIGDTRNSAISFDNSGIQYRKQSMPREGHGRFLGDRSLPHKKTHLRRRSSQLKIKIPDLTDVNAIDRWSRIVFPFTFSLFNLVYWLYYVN
T1 sequence (P18507 40-475 Y468C): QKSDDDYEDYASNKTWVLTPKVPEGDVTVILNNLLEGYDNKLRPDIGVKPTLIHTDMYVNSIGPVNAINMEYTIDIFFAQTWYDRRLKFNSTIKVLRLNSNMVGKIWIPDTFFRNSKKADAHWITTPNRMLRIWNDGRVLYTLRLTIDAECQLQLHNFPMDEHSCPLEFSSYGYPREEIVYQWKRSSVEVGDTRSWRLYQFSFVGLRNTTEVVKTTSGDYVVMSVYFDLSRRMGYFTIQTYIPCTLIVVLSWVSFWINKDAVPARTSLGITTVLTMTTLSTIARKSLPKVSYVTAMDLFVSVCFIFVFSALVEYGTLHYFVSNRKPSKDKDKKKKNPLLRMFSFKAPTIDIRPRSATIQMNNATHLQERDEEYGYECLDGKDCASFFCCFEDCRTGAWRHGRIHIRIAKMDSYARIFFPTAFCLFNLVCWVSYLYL
Experiment: Automated patch clamp of GABA-elicited currents (SyncroPatch 384PE), γ2Y468C
Format: cell-based
Details: mean
Description: The coding sequences of human α1 (GABRA1, NM_000806), β3 (GABRB3, NM_021912), and γ2 (GABRG2, NM_198904.2) GABAAR subunits were subcloned into the pcDNA3.1 expression vectors (Invitrogen, Waltham, MA, USA).
HEK293T cells (ATCC, CRL-11268) were cultured at 37 °C in a humidified 5% CO2 incubator and maintained in Dulbecco’s modified Eagle’s medium (Invitrogen) supplemented with 10% fetal bovine serum (Life Technologies, Carlsbad, CA, USA), and 100 IU/mL of penicillin/streptomycin (Life Technologies). For the expression experiments, 4 × 10^5 cells were transfected using polyethylenimine (PEI) reagent (40 kD, Polysciences, Warrington, PA, USA) at a DNA: to transfection reagent ratio of 1:2.5 and harvested 36 h after transfection. To express WT and variant α1β3γ2 receptors, a total of 3 µg of α1, β3, and γ2 (WT or mutant) subunit cDNAs were transfected at a ratio of 1:1:1 into 60 mm culture dishes. For the mock-transfected condition, an empty pcDNA3.1 vector was added for a final cDNA transfection amount of 3 μg. For the electrophysiology experiments, 2.5 × 10^5 cells were plated in 100 mm culture dishes and transfected after 24 h with 3 μg of cDNA of each α1, β3, γ2 (wild-type or mutant) subunit, using X-tremeGENE HP DNA transfection Reagent (Roche Diagnostics, Basel, Switzerland), following the manufacturer’s protocol. Recordings were obtained forty-eight hours after transfection.
Whole-cell patch clamp recordings were conducted according to the manufacturer’s standard procedure for the SyncroPatch 384 [31]. Whole-cell voltage-clamp recordings were performed at room temperature on HEK293T cells 48 h after transfection with GABAAR subunits, using the SyncroPatch 384PE (Nanion Technologies, Munich, Germany). Cells, at a concentration of 400,000 cells/mL, were harvested in suspension in external solution containing 140 mM of NaCl, 2 mM of CaCl2, 4 mM of KCl, 1 mM of MgCl2, 5 mM of glucose, and 10 mM of HEPES (pH 7.4 with NaOH, 298 mOsm). The cells were loaded in a multi-hole (4 holes per well) 384-well Nanion patch clamp (NPC) chip with a thick borosilicate glass bottom and an average resistance pore size of […]. Built-in electrophysiological protocols were used, and the data were digitized using PatchControl 384 (Nanion Technologies) application. Using PatchControl 384, electrophysiological parameters, such as seal resistance, capacitance, and series resistance, were determined for each well after the application of a test pulse, and subsequently monitored over time. […] The currents were normalized to the maximal response of each well, and the concentration–response curves were calculated from single-point additions. The EC50 values for each variant or wild-type receptor were calculated across multiple wells for each experimental condition.

Structure (SMILES): NCCCC(=O)O [GABA, γ-aminobutyric acid]
- Deactivation (1 mM GABA for 5 ms, HEK293T, -80 mV): 433.9 ms
- IMAX (maximal GABA-evoked peak current) (1 mM GABA for 5 ms, HEK293T): 0.80 nA
- IMAX variant/IMAX WT (1 mM GABA): 40.06%
- Rise Time (10–90% rise time, 1 mM GABA for 5 ms, HEK293T): 26.52 ms
